Experimental findings from US20090291923A1, “TRIOXANE DIMERS HAVING HIGH ANTICANCER AND LONG-LASTING ANTIMALARIAL ACTIVITIES” (priority 2005, published 2009) are described below.

The structures appear in SMILES notation. Values after ≈ are worked out from the molar mass of the structure shown. Where two headings read alike, the source gives them in different places.

Series [1] deals with chloroquine-sensitive Plasmodium falciparum (NF 54) parasites. The series can be described thus: in vitro antimalarial potency, standard assay. As to conditions: for IC50: Plasmodium falciparum, read-out: IC50 (nM), Antimalarial Activities in vitro. The class given is cell-based.
The nature of series [2]: solubility in aqueous pH 7.4 buffer. The conditions noted are these: aqueous pH 7.4 buffer solution, pH 7.4, 25° C. The class given is physicochemical.
In series [3] the test system is panel of 60 human cancer cell lines. The series can be described thus: NCI panel of 60 human cancer cell lines, growth inhibition. The class given is cell-based. The conditions noted are these: nanomolar to micromolar concentrations. An excerpt: Cell growth was inhibited in a dose-dependent manner.
The subject of series [4] is human cervical cancer cell line HeLa. Nature of the series: XTT proliferation / cell viability assay, HeLa. It is filed as cell-based. The conditions noted are these: for IC50: Homo sapiens, XTT based assay, read-out: IC50, HeLa cells. In general terms: Formazan colour is commonly taken as a measure of viable cells.
The test system of series [5] is normal ectocervical cells HCX (primary normal cervical cells). Nature of the series: XTT cell viability assay, normal cervical cells. It is filed as cell-based, human. On the procedure: Primary human ectocervical keratinocytes were derived from fresh cervical tissue obtained from the Cooperative Human Tissue Network (CHTN) within 24 hours after removal from patients undergoing hysterectomies for benign non-cervical uterine diseases. Standard overnight dispase treatment and subsequent trypsinization procedures were used to isolate ectocervical epithelial cells, which were cultured in serum-free keratinocyte medium (KSFM) supplemented with bovine pituitary extract and epidermal growth factor according to the manufacturer's protocol (Invitrogen, Carlsbad, Calif.). […]
Cell viability was determined using 2.5×10^3 cells were plated in triplicates in 96 well tissue culture microplates in the appropriate culture medium and incubated for 24 hours in a humidified atmosphere at 37° C., 5% CO2. […] Cell viability (absorbance) was measured using an ELISA reader at 450 nm with a reference wavelength at 650 nm. Results were calculated as the percentage of cultures exposed to solvent control only. […]
2.5×10^3 cells were plated in triplicates in 96 well tissue culture microplates in the appropriate culture medium and incubated for 24 hours in a humidified atmosphere at 37° C., 5% CO2. […] Cell viability (absorbance) was measured using an ELISA reader at 450 nm with a reference wavelength at 650 nm. Results were calculated as the percentage of cultures exposed to solvent control only. […]

The next series concerns GFP strain P. berghei. Nature of the series: in vivo antimalarial ED50 in mice, single administration SC or PO. The conditions noted are these: for ED50: Plasmodium berghei, in Mus musculus; for overt toxicity / behavioral modification in the mice: single dose of 3, 10 or 30 mg/kg SC or PO.
In series [6] the test system is Plasmodium berghei infected mice. It is filed as in vivo.
The test system of series [7] is malaria-infected mice (GFP strain P. berghei). Nature of the series: oral in vivo antimalarial activity in malaria-infected mice, three doses over three days.
Where [8] appears, read: chloroquine-sensitive P. falciparum NF 54, quadruplicates.

A word on the IC50: it is the concentration that gives 50% inhibition. In the case of `C=C(CC[C@H]1O[C@@H]2O[C@@]3(C)CC[C@H]4[C@H](C)CC[C@@H]([C@H]1C)[C@@]24OO3)C(=C)CC[C@H]1O[C@@H]2O[C@@]3(C)CC[C@H]4[C@H](C)CC[C@@H]([C@H]1C)[C@@]24OO3` [dimer 4], the IC50 in series [1] (setting [8]) amounted to 2.9 nM.

For `C[C@H]1[C@@H](CCc2cc3c(cc2CC[C@H]2O[C@@H]4O[C@@]5(C)CC[C@H]6[C@H](C)CC[C@@H]([C@H]2C)[C@@]46OO5)COP(=O)(Oc2ccccc2)OC3)O[C@@H]2O[C@@]3(C)CC[C@H]4[C@H](C)CC[C@@H]1[C@@]24OO3` (some centres unmarked) [dimer 9], the half-inhibitory concentration (IC50) in series [1] was found to be 3.7 nM.

Broadly, the solubility is how much of the substance goes into solution per volume. A higher solubility goes with much dissolved substance. As for `C[C@H]1[C@@H](CCc2cc(C(=O)O)c(C(=O)O)cc2CC[C@H]2O[C@@H]3O[C@@]4(C)CC[C@H]5[C@H](C)CC[C@@H]([C@H]2C)[C@@]35OO4)O[C@@H]2O[C@@]3(C)CC[C@H]4[C@H](C)CC[C@@H]1[C@@]24OO3` [dimer 6], the IC50 in series [1] (setting [8]) was found to be 360 nM. In series [2], this compound came in with a solubility of around 14 mg/mL (≈ 18.5 mM).

In general, ED50 refers to the dose that gives a 50% effect, or the effect in half of the subjects. As to `COC(=O)c1cc(CC[C@H]2O[C@@H]3O[C@@]4(C)CC[C@H]5[C@H](C)CC[C@@H]([C@H]2C)[C@@]35OO4)c(CC[C@H]2O[C@@H]3O[C@@]4(C)CC[C@H]5[C@H](C)CC[C@@H]([C@H]2C)[C@@]35OO4)cc1C(=O)OC` [dimer 5], the IC50 in series [1] (setting [8]) was 1.6 nM. The “preliminary growth inhibitory activity, selectivity in the panel” value in series [3] was “extremely selective and highly potent at inhibiting the growth of only non-small cell lung carcinoma HOP-92 cells, melanoma SK-MEL-5 cells, and breast cancer BT-549 cells”. Besides, in series [4], the “times more potent than trioxane monomer DHA” value is reported as 10-20 times and the IC50 came to 500 nM. Also, the “toxicity to primary normal cervical cells” value in series [5] was “without being toxic”. For the same compound, the ED50 in the series with GFP strain P. berghei (sc, read-out: SC ED50) came to 0.71 mg/kg. Further, the “overt toxicity / behavioral modification in the mice” value with GFP strain P. berghei is listed as “Neither over toxicity nor behavioral modification was observed”.

Regarding `C[C@@H]1CC[C@H]2[C@@H](C)C(=O)O[C@@H]3O[C@]4(C)CC[C@@H]1[C@]32OO4` [Artemisinin, artemisinin, reference compound], the half-maximal inhibitory concentration (IC50) in series [1] (setting [8]) stood at 6.6 ± 0.76 nM.

For the compound `C[C@H]1[C@@H](CCc2cc(CO)c(CO)cc2CC[C@H]2O[C@@H]3O[C@@]4(C)CC[C@H]5[C@H](C)CC[C@@H]([C@H]2C)[C@@]35OO4)O[C@@H]2O[C@@]3(C)CC[C@H]4[C@H](C)CC[C@@H]1[C@@]24OO3` [dimer 7], the results for the IC50 in series [1] (setting [8]) and in series [4] were 0.77 nM and 46.5 nM, respectively. Besides, in series [1] (in vitro, P. falciparum NF 54), the “times more antimalarially active than artemisinin” value is “approximately 10 times”. In addition, in series [4], the “times more potent than trioxane monomer DHA” value is given as 110-220 times. Further, the “toxicity to primary normal cervical cells” value in series [5] is “without being toxic”. Besides, the ED50 in the series on GFP strain P. berghei (po, read-out: PO ED50) amounted to 2.6 mg/kg; in the series on GFP strain P. berghei (sc, read-out: SC ED50), 0.06 mg/kg. Also, the “times more efficacious than sodium artesunate administered PO” value in the series on GFP strain P. berghei (mice, PO) was “approximately 1.5 times”. In addition, in the series on GFP strain P. berghei, the “overt toxicity / behavioral modification in the mice” value is listed as “Neither over toxicity nor behavioral modification was observed”.

Take `C[C@H]1[C@H](OC(=O)CCC(=O)[O-])O[C@@H]2O[C@@]3(C)CC[C@H]4[C@H](C)CC[C@@H]1[C@@]24OO3.[Na+]` [sodium artesunate]: in series [6] (30 mg/kg single dose, no drug 7 days), the “life of the mice prolonged to” value is 14 days. Also, in series [6] (single dose 30 mg/kg, subcutaneous), the malaria parasites killed entry is “similarly efficacious”. Further, the “Avg Mouse Survival (oral, 3 × 10 mg/kg)” value in series [7] is on record as 6.7. Further, in the series with GFP strain P. berghei (mice, single administration, oral), the “PO ED50” value is 4.0 mg/kg. Moreover, the “SC ED50” value in the series with GFP strain P. berghei (mice, single administration, subcutaneous) was 2.2 mg/kg.
